Where two headings read alike, the source gives them in different places.
Assays:
HCV replicon = HCV replicon assay: HCV RNA by Q-RT-PCR, 4 days exposure; assay type: cell-based, hepatitis C virus (HCV); conditions: for log reduction at 10 µM: read-out: Corrected HCV RNA log10 reduction at 10 μM
Experimental: Antiviral screening assays can be done in the same media without G418 as follows: in order to keep cells in logarithmic growth phase, seed cells in a 96-well plate at low density, for example 1000 cells per well. Add the test compound immediate after seeding the cells and incubate for a period of 3 to 7 days at 37° C. in an incubator. Media is then removed, and the cells are prepared for total nucleic acid extraction (including replicon RNA and host RNA). Replicon RNA can then be amplified in a Q-RT-PCR protocol, and quantified accordingly. […] This value is called DeltaCt (ΔCt or DCt).
This value is called DeltaCt (ΔCt or dCt).

Huh-7 cells = assay: Cellular rRNA levels / cytotoxicity in HCV replicon cells; conditions: for log10 RNA reduction at 100 μM, rRNA: 4 days, HCV replicon transfected Huh-7 cells
Source text: In a typical setting, a compound might reduce both the host RNA polymerase activity and the replicon-encoded polymerase activity. Therefore, quantification of rRNA (or any other host RNA polymerase I product) or beta-actin mRNA (or any other host RNA polymerase II) and comparison with RNA levels of the no-drug control is a relative measurement of the effect of the test compound on host RNA polymerases.
With the availability of both the HCV ΔCt data and the rRNA ΔCt, a specificity parameter can be introduced. This parameter is obtained by subtracting both ΔCt values from each other.
IFN-α-2a and ribavirin were tested over a range of concentrations for their ability to reduce the HCV RNA levels in exponentially growing replicon cells after 4 days of exposure as described (Stuyver, L. et al. “A ribonucleoside analogue that blocks the replication of bovine viral diarrhea and hepatitis C viruses in culture” Antimicrob. Agents Chemother. 2003, 47, 244-254).
Gemcitabine was dissolved in DMSO and added to the culture media of a cellular model system of Huh7 cells harboring self-replicating HCV RNA, at final concentrations ranging from […]. In such experiments, one way to express the antiviral effectiveness of a compound is to subtract the threshold reverse-transcriptase polymerase chain reactions (RT-PCR) cycle of the test compound with the average threshold RT-PCR cycle of the negative control. This value is called DeltaCt (ΔCt or dCt). With the availability of both the HCV ΔCt data and the rRNA ΔCt, a specificity parameter can be introduced. This parameter is obtained by subtracting both ΔCt values from each other.

HCV replicon cells = assay: Prevention studies with natural ribo- or 2′-deoxy nucleosides; assay type: cell-based, human; conditions: test compound at 96 h EC90 value; nucleosides at 50 μM
[1] = system: HCV replicon cells (Huh-7); assay: 7-day cell growth dynamics, trypan-blue cell count; conditions: range of testing 50-1,000 nM; 7-day dynamics
Experimental: FIG. 2 is a graphical depiction of the dynamics of cell growth and HCV RNA levels after exposure to control anti-HCV compounds. HCV replicon cells were seeded at approximately 10^4 cells per well in a 24-well plate. Over a 7-day period, cells were counted daily, and rRNA and HCV RNA were quantified by Q-RT-PCR. A: IFN-α-2a at 100 IU/ml; B: ribavirin at 100 μM. ●: cell proliferation in absence of compound; ◯: cell proliferation in presence of compound; ▾: HCV RNA levels in untreated cells; ∇: HCV RNA levels in the presence of compound. The curves shown are averages of 3 independent experiments.
Therefore, experiments were conducted to monitor HCV RNA levels and the cell growth dynamics over a 7-day period.
The dynamics of HCV replicon cells exposed to these inhibitors (at their EC90 value) was monitored over a 7-day period.

HCV = assay: Single treatment of an HCV-infected patient, viral load; assay type: in vivo, human
Experimental: The tolerance was acceptable, and thus the next day the patient was given a second dosage of approximately 700 mg of gemcitabine. Before the second dosage the baseline viral load was 6.49 log copies/mL.

[2] = Hepatitis C virus, 96 h, 100 μM, 4 days, HCV replicon transfected Huh-7 cells, read-out: log10 RNA reduction at 100 μM, HCV
[3] = Hepatitis C virus, 96 h incubation, read-out: Corrected HCV RNA EC90
[4] = Hepatitis C virus, 96 h, read-out: Corrected HCV RNA log10 reduction at 100 μM
[5] = second dosage approximately 700 mg
[6] = 100 μM, 4 days, HCV replicon transfected Huh-7 cells
[7] = 96 h incubation, read-out: Corrected HCV RNA EC90
[8] = Hepatitis C virus, 96 h, read-out: Corrected HCV RNA EC90
[9] = Hepatitis C virus, Huh-7, 96 h, read-out: log10 RNA reduction at 100 μM, HCV

SMILES	log reduction at 100 µM (HCV replicon; [2])	EC90 (HCV replicon; [3]) [µM]	log10 RNA reduction at 100 μM, rRNA (Huh-7 cells) [log10]	log reduction at 10 µM (HCV replicon; Hepatitis C virus, 96 h)	log reduction at 100 µM (HCV replicon; [4])	Corrected HCV RNA log10 reduction at 10 μM (HCV replicon; 10 μM, corrected for rRNA) [log10]	log10 RNA reduction at 100 μM, HCV (HCV replicon; [6]) [log10]	Corrected HCV RNA log10 reduction at 100 μM (HCV replicon; 100 μM, corrected for rRNA) [log10]	EC90 (HCV replicon; [7]) [µM]	further results
Cc1c(-c2ccc(-c3ccccc3F)cc2)nc2ccc(F)cc2c1C(=O)O [Brequinar (NSC-368390), Brequinar]	-0.05 ± 0.05	> 100	0.29 ± 0.01	–	–	–	–	–	–	log reduction at 10 µM (HCV replicon; Hepatitis C virus, 96 h, 10 μM, corrected for rRNA): -0.17 ± 0.09; log reduction at 100 µM (HCV replicon; Hepatitis C virus, 96 h, 100 μM, corrected for rRNA, read-out: Corrected HCV RNA log10 reduction at 100 μM): -0.34 ± 0.04
O=c1ccn(C2OC(CO)C(O)C2(F)F)c(=O)[nH]1 (stereo not shown) [dFdU]	–	–	–	–	–	–	–	–	–	dCT HCV (HCV replicon; 7.0 μM): 6.39; ddCt (HCV replicon; 7.0 μM, HCV dCt minus rRNA dCt): 4.42; dCt rRNA (Huh-7 cells; 7.0 μM): 1.96
CN(Cc1cnc2nc(N)nc(N)c2n1)c1ccc(C(=O)N[C@@H](CCC(=O)O)C(=O)O)cc1 [Methotrexate]	0.18 ± 0.01	> 100	0.07 ± 0.10	0.15 ± 0.01	0.11 ± 0.09	–	–	–	–	–
Nc1ccn([C@@H]2O[C@H](CO)[C@@H](O)C2(F)F)c(=O)n1 [dFdC, 2′-deoxy-2′,2′-difluorocytidine]	–	–	–	1.32 ± 0.08	–	–	–	–	–	prevention of antiviral and cytostatic effects by natural nucleosides (HCV replicon cells): prevented by 2′-deoxycytidine; Corrected HCV RNA EC90 (HCV replicon; 96 h incubation): Too toxic; antiviral activity on HCV replicon RNA (HCV replicon; HCV replicon cells): most potent inhibitor of both replicon RNA and cells; EC90 (HCV replicon; Hepatitis C virus, Huh-7, 96 h, 4-days incubation, Huh7 cells harboring self-replicating HCV RNA, read-out: EC90, reduction of replicon HCV RNA): ~0.07 µM; EC50 (HCV replicon; Hepatitis C virus, Huh-7, Huh7 cells harboring self-replicating HCV RNA, read-out: EC50, reduction of HCV RNA levels): 40 nM; log10 RNA reduction, HCV (HCV replicon; dFdC tested initially at 50 μM): 1.87 ± 0.16 log10; Corrected HCV RNA log10 reduction (HCV replicon; dFdC tested initially at 50 μM, corrected for rRNA): 1.29 ± 0.11 log10; IC50 (Huh-7 cells; Homo sapiens, Huh-7): 240 nM; log10 RNA reduction, rRNA (Huh-7 cells; dFdC tested initially at 50 μM): 0.59 ± 0.05 log10; non-cytotoxic concentration [1]: could not be found; tolerance / adverse events (HCV; patient with multifocal HCC, cirrhosis, ischaemic hepatitis, listed as gemcitabine): heart problems; baseline viral load before the second dosage (HCV; patient, day after 1200 mg gemcitabine HCl with oxaliplatine): 6.49 log copies/mL; HCV RNA eight hours after the second dosage (HCV; [5]): 4.04 log copies/mL; drop in HCV RNA in eight hours (HCV; [5]): ~2.5 log
O=c1cnn([C@@H]2O[C@H](CO)[C@@H](O)[C@H]2O)c(=S)[nH]1 [2-thio-6-azauridine]	–	–	−0.02 ± 0.12	–	–	0.12 ± 0.10	0.16 ± 0.04	0.19 ± 0.09	> 100	–
Nc1ccn(C2OC(CO)C(O)C2=CF)c(=O)n1 (stereo not shown) [Tezacytabine]	–	–	1.78 ± 0.69	–	–	0.63 ± 0.07	1.59 ± 0.08	−0.19 ± 0.49	> 100	–
NC(=O)c1csc([C@@H]2O[C@H](CO)[C@@H](O)[C@H]2O)n1 [Tiazofurin]	–	–	0.99 ± 0.35	0.04 ± 0.1	-0.13 ± 0.37	–	–	–	–	EC90 (HCV replicon; [8]): > 100 µM; log reduction at 100 µM (HCV replicon; [9]): 0.86 ± 0.27
NC(=O)c1ncn([C@@H]2O[C@H](CO)[C@@H](O)[C@H]2O)c1O [Mizoribine]	0.29 ± 0.74	> 100	0.21 ± 0.50	-0.14 ± 0.12	0.08 ± 0.82	–	–	–	–	–
Nc1n[nH]c(N)n1 [Guanazole]	–	–	0.07 ± 0.03	0.05 ± 0.08	0.32 ± 0.08	–	–	–	–	EC90 (HCV replicon; [8]): > 100 µM; log reduction at 100 µM (HCV replicon; [9]): 0.25 ± 0.11
COc1c(C)c2c(c(O)c1CCOP(=O)(O)CP(=O)(O)OC[C@H]1O[C@@H](n3cnc4c(N)ncnc43)[C@H](O)[C@@H]1O)C(=O)OC2 [C2-MAD]	–	–	1.00 ± 0.15	–	–	0.36 ± 0.21	1.09 ± 0.21	0.08 ± 0.24	> 100	–
